Measured values: PMC12670405, “Second-Generation AURKA-Targeting PROTACs: Structural Optimization toward in Vivo Degradation in Neuroblastoma” (Journal of Medicinal Chemistry, 2025)
Where two headings read alike, the source gives them in different places.

Tests used:
NGP = assay: IncuCyte live-cell imaging, antiproliferative effect; format: cell-based; conditions: Homo sapiens, 72 h
Outline: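 Cells seeded in 384-well plates (neuroblastoma 1200–5000, HEK293T 600 cells/well), adhered overnight, then compound-treated in duplicate or triplicate; confluency tracked by IncuCyte live-cell imaging. Normalized confluence averaged from 3 experiments; absolute GI50 interpolated from four-parameter variable-slope curves.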

[1] = Metabolic stability in mouse liver microsomes (MLM); format: in vitro ADME, CD-1 mouse; conditions: CD-1
Method: Plasma and metabolic stability tests were performed by Eurofins Discovery. For the plasma stability assay, test compounds were incubated in CD-1 mouse plasma for 0, 0.5, 1, 1.5, and 2 h at 37 °C at a concentration of 1 μM. For the metabolic stability assay, test compounds were incubated at 37 °C in either (1) CD-1 mouse liver microsomes (MLM) (0.1 mg/mL) at a concentration of 0.1 μM for 0, 15, 30, 45, and 60 min or (2) CD-1 mouse hepatocytes (MH) (0.7 million viable cells/mL) at a concentration of 1 μM for 0, 0.5, 1, 1.5, and 2 h. At the respective time points, acetonitrile was added to the incubation mixture followed by centrifugation. Samples were analyzed by HPLC-MS/MS and peak areas were recorded for each analyte. Compound stability, expressed as the percentage of parent compound remaining, was calculated by comparing the peak area of the compound at each time point relative to that of the 0h time point. Percentage compound remaining is plotted as a function of time as a logarithmic curve. Half-life (t 1/2) is estimated from the slope of the initial linear range of the curve, assuming first-order kinetics. […] Both plasma and metabolic assay experiments were performed once with 2 replicate samples each.

| microsomal CLint at 0.1 μM [1] [µL/min/mg] | SMILES | GI50 (NGP; read-out: GI50 72h, 72h) [nM] | GI50 (NGP; read-out: pGI50 (converted)) [nM] | GI50 (NGP; read-out: Cell GI50 72h, NGP (Figure 4B)) [nM] |
| --- | --- | --- | --- | --- |
| 369 | O=C1CCC(Nc2ccc(N3CCN(C4CN(C(=O)[C@]5(Cc6cccc(Nc7nccs7)n6)CC[C@@H](Oc6cccc(Cl)c6F)CC5)C4)CC3)c(F)c2)C(=O)N1 (stereo partly shown) [PROTAC 18] | 17 | 17 | – |
| 666 | O=C1CCN(c2ccc(N3CCN(CC4CN(C(=O)[C@]5(Cc6cccc(Nc7nccs7)n6)CC[C@@H](Oc6cccc(Cl)c6F)CC5)C4)CC3)nc2)C(=O)N1 [PROTAC 23] | 24 | 23.4 | – |
| 565 | O=C1CCN(c2ccc(N3CCN(CC4CCN(C(=O)[C@]5(Cc6cccc(Nc7nccs7)n6)CC[C@@H](Oc6cccc(Cl)c6F)CC5)CC4)CC3)nc2)C(=O)N1 [PROTAC 24] | 28 | 27.5 | – |
| 438 | Cc1cc(Nc2ccc(F)c(CC3(C(=O)N4CC(N5CCN(c6ccc(NC7CCC(=O)NC7=O)cc6F)CC5)C4)CCN(Cc4cccc(Cl)c4F)CC3)n2)n[nH]1 (stereo not shown) [PROTAC 29] | 36 | 36.3 | – |
| 1390 | O=C1CCC(N2C(=O)c3cccc(OCCOCCOCCOCCNC(=O)[C@]4(Cc5cccc(Nc6nccs6)n5)CC[C@@H](Oc5cccc(Cl)c5F)CC4)c3C2=O)C(=O)N1 (stereo partly shown) [SK2188, reference compound] | 40 | 39.8 | 19 |
| 437 | Cc1cc(Nc2ccc(F)c(CC3(C(=O)N4CCC(CN5CCN(c6ccc(N7CCC(=O)NC7=O)cn6)CC5)CC4)CCN(Cc4cccc(Cl)c4F)CC3)n2)n[nH]1 [SK4454] | 35 | 34.7 | – |

| SMILES | microsomal CLint at 0.1 μM [1] [µL/min/mg] | GI50 (NGP; read-out: GI50 72h, 72h) [nM] | GI50 (NGP; read-out: pGI50 (converted)) [nM] | GI50 (NGP; read-out: Cell GI50 72h, NGP (Figure 4B)) [nM] |
| --- | --- | --- | --- | --- |
| Cc1cc(Nc2ccc(F)c(CC3(C(=O)N4CCC(F)(CN5CCN(c6ccc(N7CCC(=O)NC7=O)cn6)CC5)CC4)CCN(Cc4cccc(Cl)c4F)CC3)n2)n[nH]1 [SK5527] | 582 | 42 | 41.7 | – |
